Test results reported in ChEMBL document CHEMBL1138595, “(+/-)-Nantenine analogs as antagonists at human 5-HT(2A) receptors: C1 and flexible congeners” (Bioorg Med Chem Lett, 2009).

Target: 5-hydroxytryptamine receptor 2A (Homo sapiens, UniProt P28223)
Assay: Antagonist activity at human 5HT2A receptor expressed in EC80 serotonin-stimulated CHOK1 cells by calcium mobilization assay
Type: functional, cell-based, CHO-K1

5-hydroxytryptamine receptor 2A, sequence (P28223 whole entry): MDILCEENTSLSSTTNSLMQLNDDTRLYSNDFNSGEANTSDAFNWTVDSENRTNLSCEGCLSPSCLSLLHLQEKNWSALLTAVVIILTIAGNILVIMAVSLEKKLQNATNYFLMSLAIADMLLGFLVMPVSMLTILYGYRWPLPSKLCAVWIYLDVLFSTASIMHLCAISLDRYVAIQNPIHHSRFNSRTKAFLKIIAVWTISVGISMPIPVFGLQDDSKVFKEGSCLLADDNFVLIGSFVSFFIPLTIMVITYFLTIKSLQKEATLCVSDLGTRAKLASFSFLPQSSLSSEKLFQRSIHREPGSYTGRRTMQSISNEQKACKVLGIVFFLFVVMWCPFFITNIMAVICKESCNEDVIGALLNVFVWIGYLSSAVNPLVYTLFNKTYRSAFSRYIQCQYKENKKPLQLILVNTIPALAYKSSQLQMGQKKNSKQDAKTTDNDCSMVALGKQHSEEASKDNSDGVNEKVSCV

## COc1cc2c3c(c1OCc1ccccc1)-c1cc4c(cc1CC3N(C)CC2)OCO4 (stereo unspecified)
  IC50: 4.6 µM
